The target in data set [1] is T1, S. aureus GMK (Staphylococcus aureus, UniProt P99176).
Data set [2] deals with T1, S. aureus GMK. Kind of data set: biochemical.
For data set [3], the target named is T2, E. coli GMK (Escherichia coli, UniProt P60546). The format is biochemical.
Data set [4] relates to chimeric E. coli GMKs with S. aureus lid domains. It is filed as biochemical.
Data set [5] addresses T3, C. gilvus GMK (Cellulomonas gilvus, UniProt F8A6C8). Description: biochemical.
Data set [6] deals with T4, S. mutans GMK (Streptococcus mutans serotype c, UniProt Q8DVK6). Description: biochemical.
The target in data set [7] is T5, T. thermophilus GMK (Thermus thermophilus, UniProt Q5SI18).
Data set [8] addresses T5, T. thermophilus GMK. Description: biochemical.
The target of data set [9] is T6, D. radiodurans GMK (Deinococcus radiodurans, UniProt Q9RS38). Description: biochemical.
The target of data set [10] is T7, S. coelicolor GMK (Streptomyces coelicolor, UniProt Q9KXS0). Kind of data set: biochemical.
The target in a further data set is T. thermophilus IMPDH. Particulars: cited from earlier work.
In data set [11] the target is T2, E. coli GMK. It is filed as binding.
The target of another data set is M. tuberculosis GMK (Mycobacterium tuberculosis, UniProt P9WKE9). The format is biochemical.
Data set [12] concerns the target T8, B. anthracis GMK (Bacillus anthracis, UniProt Q81WG7).
Data set [13] has as its target T9, B. subtilis GMK (Bacillus subtilis, UniProt O34328).
Data set [14] deals with T10, S. meliloti GMK (Sinorhizobium meliloti, UniProt Q92QZ2). Description: biochemical.
Data set [15] has as its target T8, B. anthracis GMK. Kind of data set: biochemical.
The subject of data set [16] is GMK of Rhodobacter sphaeroides. The format is biochemical.
The next data set has as its system Pseudomonas syringae GMK. It is filed as biochemical.
Data set [17] has as its target T9, B. subtilis GMK. Kind of data set: biochemical.
Data set [18] has as its system Neisseria meningitidis GMK. It is filed as biochemical.
The target in data set [19] is T7, S. coelicolor GMK.
For data set [20], the system named is Chimeric S. aureus GMKs with E. coli lid domains. The format is biochemical.
For a further data set, the target named is E. faecalis GMK-1 (Enterococcus faecalis, UniProt Q82ZD5). It is filed as biochemical.
In data set [21] the target is T11, L. monocytogenes GMK (Listeria monocytogenes serovar 1/2a, UniProt Q8Y672).
Data set [22] addresses T6, D. radiodurans GMK.
Data set [23] has as its target T4, S. mutans GMK.
Data set [24] concerns the target T10, S. meliloti GMK.
For the next data set, the target named is A. tumefaciens GMK (Agrobacterium tumefaciens, UniProt Q8UGD7). It is filed as biochemical.
Data set [25] deals with T11, L. monocytogenes GMK. Kind of data set: biochemical.
The target of data set [26] is T12, E. faecalis GMK-2 (Enterococcus faecalis, UniProt Q831B6). Particulars: cited from earlier work.
In data set [27] the target is T9, B. subtilis GMK. The format is binding.
For the next data set, the target named is B. subtilis GMK Y77F (Bacillus subtilis, UniProt O34328, Y77F). It is filed as biochemical.
Data set [28] concerns Yersinia enterocolitica GMK. The format is biochemical.
Data set [29] addresses T3, C. gilvus GMK.
Data set [30] concerns the target T12, E. faecalis GMK-2. It is filed as biochemical.
The target in a further data set is Coxiella burnetii GMK (Coxiella burnetii, UniProt Q83EL7). It is filed as biochemical.
For data set [31], the system named is Klebsiella pneumoniae GMK. The format is biochemical.
Data set [32] relates to Nc1nc2c(ncn2[C@@H]2O[C@H](COP(=O)(O)O)[C@@H](O)[C@H]2O)c(=O)[nH]1. Description: purified protein, by the assay type. Particulars: 25.0 °C.

“Also recorded” adds a separate entry of the source.

Results on twelve molecules are retold here after publication PMC4336630 (Molecular cell, 2015).

`Nc1nc2c(ncn2[C@@H]2O[C@H](COP(=O)(O)OP(=O)(O)O)[C@@H](OP(=O)(O)OP(=O)(O)O)[C@H]2O)c(=O)[nH]1` [ppGpp, guanosine tetraphosphate]: the Mode of inhibition entry at S. aureus GMK [1] is recorded as “competitively inhibits”. This molecule displayed a Ki at S. aureus GMK [2] of 8.2 µM. Moreover, the “Inhibition of GMK activity (sensitivity)” value at E. coli GMK [3] is “resistant”.
`Nc1nc2c(ncn2[C@@H]2O[C@H](COP(=O)(O)OP(=O)(O)OP(=O)(O)O)[C@@H](OP(=O)(O)OP(=O)(O)O)[C@H]2O)c(=O)[nH]1` [pppGpp, guanosine pentaphosphate]: the “Inhibition of GMK activity (sensitivity)” value is given as “still resistant” in data set [4]; “insensitive” at M. tuberculosis GMK; “resistant” in [16]; “completely resistant” in the data set on Pseudomonas syringae GMK; “completely resistant” in [18]; “more resistant” in [20]. Further, the “Inhibition of GMK activity (sensitivity)” value (on E. coli GMK [3]; in data set [28]; on Coxiella burnetii GMK; in data set [31]) was “completely resistant” in each case. The Ki was 1.7 ± 0.5 µM on C. gilvus GMK [5]; 16.6 ± 2.4 µM on S. mutans GMK [6]; 2.9 ± 0.5 µM at T. thermophilus GMK [8]; 1.6 ± 0.4 µM on D. radiodurans GMK [9]; 61.5 ± 9.6 µM at S. coelicolor GMK [10]; roughly 11 µM on T. thermophilus IMPDH. Besides, the inhibitory constant (Ki) at S. meliloti GMK [14] is 81.6 ± 11.8 µM; on B. anthracis GMK [15] it was 42.5 ± 7.3 µM; on S. aureus GMK [2], 7 µM; on A. tumefaciens GMK, 53.5 ± 8.9 µM; on L. monocytogenes GMK [25], 12 ± 1.1 µM; on E. faecalis GMK-2 [30] it was 355 ± 26 µM. The IC50 at S. mutans GMK [6] was 9 to 24 µM; against B. anthracis GMK [15] it was roughly 120 µM; against S. aureus GMK [2], 9 to 24 µM; against B. subtilis GMK [17], roughly 16 µM; on L. monocytogenes GMK [25], 9 to 24 µM; on E. faecalis GMK-2 [26], roughly 460 µM. Besides, the Mode of inhibition result on T. thermophilus GMK [7] was “strongly and competitively inhibited and Comp”; at B. anthracis GMK [12], “Comp”; on B. subtilis GMK [13], “Comp”; on S. aureus GMK [1], “competitively inhibits and Comp”; on S. coelicolor GMK [19], “competitively inhibited and Comp”; at E. faecalis GMK-1, “Comp”. Also, the Mode of inhibition entry is “Comp” on L. monocytogenes GMK [21]; “strongly and competitively inhibited and Comp” at D. radiodurans GMK [22]; “Comp” on S. mutans GMK [23]; “modestly and competitively inhibited and Comp” at S. meliloti GMK [24]; “modestly and competitively inhibited and Comp” at A. tumefaciens GMK; “competitively inhibited and Comp” on C. gilvus GMK [29]. Further, the Mode of inhibition entry on E. faecalis GMK-2 [30] is recorded as “noncompetitively inhibited; also recorded: Noncomp”. Besides, the “Binding by ITC” value on E. coli GMK [11] was “not observed”. Further, the “Complex formation (binding) by ITC” value at B. subtilis GMK [27] was “detected”. Also, the “Ki of the variant (in words)” value on B. subtilis GMK Y77F is given as “increased Ki to a level comparable to that of B. anthracis GMK”.
Turning to B. anthracis GMK (Bacillus anthracis), in data set [32], the Km was 78.1 ± 39.7 µM and the kcat amounted to 57.6 ± 21.9 s⁻¹.
“B. subtilis GMK (Bacillus subtilis subsp. subtilis str. 168)”: in data set [32], the Michaelis-Menten constant (Km) is 24.6 ± 3.4 µM and the catalytic constant (kcat) was found to be 23 ± 1 s⁻¹.
Taken in the same sequence, the figures for “C. gilvus GMK (Cellulomonas gilvus ATCC 13127)” were 22.5 ± 7.3 µM and 25 ± 2.7 s⁻¹.
Regarding “D. radiodurans GMK (Deinococcus radiodurans R1 = ATCC 13939 = DSM 20539)”, in data set [32], the Km worked out at 17.8 ± 5.4 µM and the kcat worked out at 44.5 ± 4.4 s⁻¹.
Regarding “L. monocytogenes GMK (Listeria monocytogenes EGD-e)”, in [32], the Km was determined as 84.7 ± 14.2 µM and the kcat turned out to be 54.9 ± 5.6 s⁻¹.
Taken in the same sequence, the figures for “S. aureus GMK (Staphylococcus aureus subsp. aureus N315)” were 35.1 ± 7.1 µM and 72.9 ± 7.2 s⁻¹.
Taken in the same sequence, the figures for “S. coelicolor GMK (Streptomyces coelicolor A3(2))” were 29.7 ± 3.4 µM and 25.5 ± 0.7 s⁻¹.
In the case of “S. meliloti GMK (Sinorhizobium meliloti 1021)”, in data set [32], the Km is 14.1 ± 1.3 µM and the kcat is 19.5 ± 0.3 s⁻¹.
Taken in the same sequence, the figures for “S. mutans GMK (Streptococcus mutans UA159)” were 147.4 ± 68.6 µM and 68.9 ± 24.8 s⁻¹.
Taken in the same sequence, the figures for “T. thermophilus GMK (Thermus thermophilus HB8)” were 17.5 ± 4.1 µM and 4.8 ± 0.4 s⁻¹.

As a reminder, the Ki is a measure of affinity in units of concentration, obtained from inhibition or displacement. A word on the IC50: it is the concentration that inhibits the measured activity by half. The term Km denotes the substrate concentration at which the rate is half of its maximum. A word on the kcat: it is the maximal rate divided by the concentration of active sites.
